# Where two headings read alike, the source gives them in different places.
# How the values were obtained:
# [1] = biological target: T1, mTOR (Homo sapiens, UniProt P42345); test: LanthaScreen TR-FRET displacement binding assay, mTOR
# [2] = system: human MDR1 (P-gp); test: in vitro; conditions: dog, MDCK-MDR1
# [3] = biological target: T1, mTOR; conditions: previously reported, ref [14], cited from earlier work; for SI (selectivity index), Ki(PI3Kα)/Ki(mTOR): mTOR over PI3Kα
# [4] = biological target: PI3Kα (p110α) (Homo sapiens, UniProt P42336); conditions: read-out: In vitro binding assays Ki PI3Kα; TR-FRET displacement, mean ± SD; previously reported, ref [14]; cited from earlier work
# Chain of PI3Kα (p110α) (P42336 whole entry): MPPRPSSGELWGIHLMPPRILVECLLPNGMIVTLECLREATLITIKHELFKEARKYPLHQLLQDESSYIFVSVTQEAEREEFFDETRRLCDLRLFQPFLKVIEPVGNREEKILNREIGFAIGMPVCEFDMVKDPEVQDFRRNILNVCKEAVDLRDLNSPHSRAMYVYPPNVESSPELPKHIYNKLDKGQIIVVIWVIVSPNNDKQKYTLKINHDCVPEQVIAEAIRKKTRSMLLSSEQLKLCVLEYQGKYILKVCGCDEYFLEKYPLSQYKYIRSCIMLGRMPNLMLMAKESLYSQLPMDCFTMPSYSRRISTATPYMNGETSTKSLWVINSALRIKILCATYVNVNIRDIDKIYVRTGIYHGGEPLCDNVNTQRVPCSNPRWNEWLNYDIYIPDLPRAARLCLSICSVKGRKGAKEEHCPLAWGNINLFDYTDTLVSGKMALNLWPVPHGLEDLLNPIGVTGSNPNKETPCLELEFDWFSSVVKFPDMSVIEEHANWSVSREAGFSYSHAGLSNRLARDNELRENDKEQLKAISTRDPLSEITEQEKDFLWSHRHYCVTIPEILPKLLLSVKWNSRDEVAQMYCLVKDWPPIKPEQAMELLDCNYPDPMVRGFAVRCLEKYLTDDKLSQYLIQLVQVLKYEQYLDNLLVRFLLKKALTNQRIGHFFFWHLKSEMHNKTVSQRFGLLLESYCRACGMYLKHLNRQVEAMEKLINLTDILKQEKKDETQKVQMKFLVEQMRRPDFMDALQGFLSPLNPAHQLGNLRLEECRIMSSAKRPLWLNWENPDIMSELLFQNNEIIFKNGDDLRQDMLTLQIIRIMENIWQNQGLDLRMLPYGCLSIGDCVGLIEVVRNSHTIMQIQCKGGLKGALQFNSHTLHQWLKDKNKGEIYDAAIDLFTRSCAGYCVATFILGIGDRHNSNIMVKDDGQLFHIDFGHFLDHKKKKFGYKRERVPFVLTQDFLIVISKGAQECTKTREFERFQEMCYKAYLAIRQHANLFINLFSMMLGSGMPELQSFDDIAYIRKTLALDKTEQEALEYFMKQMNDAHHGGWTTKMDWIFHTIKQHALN
# Chain of PI3Kα (p110α) (P27986 whole entry partner): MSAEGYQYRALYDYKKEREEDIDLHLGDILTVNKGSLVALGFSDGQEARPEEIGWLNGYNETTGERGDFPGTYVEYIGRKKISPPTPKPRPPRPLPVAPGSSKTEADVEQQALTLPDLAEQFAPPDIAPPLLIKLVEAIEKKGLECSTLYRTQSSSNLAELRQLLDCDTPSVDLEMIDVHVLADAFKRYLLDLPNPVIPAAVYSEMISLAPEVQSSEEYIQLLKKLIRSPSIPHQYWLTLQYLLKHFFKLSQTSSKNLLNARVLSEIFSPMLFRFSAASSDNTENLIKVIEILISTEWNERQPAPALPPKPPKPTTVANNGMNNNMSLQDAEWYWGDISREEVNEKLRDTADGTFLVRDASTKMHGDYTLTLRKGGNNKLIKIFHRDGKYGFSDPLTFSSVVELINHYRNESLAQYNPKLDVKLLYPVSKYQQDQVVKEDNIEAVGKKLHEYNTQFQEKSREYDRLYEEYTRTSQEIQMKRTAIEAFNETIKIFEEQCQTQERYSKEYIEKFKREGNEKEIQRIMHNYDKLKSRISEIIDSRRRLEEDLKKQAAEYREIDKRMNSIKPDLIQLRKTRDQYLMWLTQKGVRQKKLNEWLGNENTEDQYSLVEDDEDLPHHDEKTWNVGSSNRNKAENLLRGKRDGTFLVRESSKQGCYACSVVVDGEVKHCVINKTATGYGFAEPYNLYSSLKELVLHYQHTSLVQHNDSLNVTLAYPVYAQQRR
# [5] = system: phosphorylated S6 ribosomal protein [pS6, Ser235/236]; conditions: read-out: Cellular assays IC50 pS6 S235/236; A2058 melanoma cells; previously reported, ref [14]; cited from earlier work
# T1 sequence (P42345 1360-2549): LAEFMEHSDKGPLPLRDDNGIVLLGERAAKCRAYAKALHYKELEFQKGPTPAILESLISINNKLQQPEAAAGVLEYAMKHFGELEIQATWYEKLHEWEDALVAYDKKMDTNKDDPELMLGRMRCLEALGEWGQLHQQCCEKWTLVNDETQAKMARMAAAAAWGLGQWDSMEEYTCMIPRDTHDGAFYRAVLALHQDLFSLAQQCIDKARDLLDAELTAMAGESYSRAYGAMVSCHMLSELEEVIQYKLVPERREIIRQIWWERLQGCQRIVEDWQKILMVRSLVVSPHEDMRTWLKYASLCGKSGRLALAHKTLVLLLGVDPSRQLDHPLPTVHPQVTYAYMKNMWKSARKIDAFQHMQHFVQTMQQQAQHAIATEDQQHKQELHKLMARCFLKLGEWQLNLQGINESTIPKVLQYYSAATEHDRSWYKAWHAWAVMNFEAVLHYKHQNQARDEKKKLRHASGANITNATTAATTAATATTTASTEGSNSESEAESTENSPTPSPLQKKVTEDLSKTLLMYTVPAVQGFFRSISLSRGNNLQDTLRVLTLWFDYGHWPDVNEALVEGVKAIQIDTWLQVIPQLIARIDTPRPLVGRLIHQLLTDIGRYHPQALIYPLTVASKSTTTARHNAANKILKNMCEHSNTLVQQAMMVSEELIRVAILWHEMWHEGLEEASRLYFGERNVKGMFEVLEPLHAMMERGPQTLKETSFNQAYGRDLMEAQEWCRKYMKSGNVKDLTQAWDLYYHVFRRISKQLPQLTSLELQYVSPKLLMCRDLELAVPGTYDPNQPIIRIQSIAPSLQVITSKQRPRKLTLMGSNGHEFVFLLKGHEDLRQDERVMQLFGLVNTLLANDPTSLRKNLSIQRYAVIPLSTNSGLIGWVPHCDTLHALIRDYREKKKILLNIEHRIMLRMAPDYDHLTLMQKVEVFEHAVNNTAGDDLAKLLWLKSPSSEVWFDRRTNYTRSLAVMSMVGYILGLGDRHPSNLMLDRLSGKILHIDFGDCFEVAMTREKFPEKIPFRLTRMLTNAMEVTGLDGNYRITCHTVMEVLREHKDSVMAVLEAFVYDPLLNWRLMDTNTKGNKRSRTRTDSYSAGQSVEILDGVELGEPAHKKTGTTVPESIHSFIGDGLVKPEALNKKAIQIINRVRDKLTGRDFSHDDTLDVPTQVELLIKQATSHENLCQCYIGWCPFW
Structure (SMILES),Papp [2],"SI (selectivity index), Ki(PI3Kα)/Ki(mTOR) [3]",Ki [4],IC50 [5],other results
C[C@@H]1COCCN1c1nc(-c2nc(N)ns2)nc2c1C[C@@H]1COCCN21 [Compound 2],,,,,"fold decrease in mTOR affinity ([1]; 1,2,4-thiadiazole 2 versus pyrimidine 1): > 10 fold"
C[C@@H]1COCCN1c1nc(-c2cnc(N)nc2C(F)F)nc2c1C[C@@H]1COCCN21 [Compound 8],,,,,"SI (selectivity index), Ki(PI3Kα)/Ki(mTOR) ([1]; mTOR over PI3Kα): < 1"
C[C@@H]1COCCN1c1nc(-c2nnc(N)s2)nc2c1C[C@@H]1COCCN21 [Compound 4],< 60 ×10⁻⁶ cm/s,,,,
C[C@@H]1COCCN1c1nc(-c2cnc(N)s2)nc2c1C[C@@H]1COCCN21 [Compound 6],< 60 ×10⁻⁶ cm/s,,,,
C[C@@H]1COCCN1c1nc(-c2ccc(N)nc2)nc2c1C[C@@H]1COCCN21 [Compound 5],,215,2.15 ± 0.4 µM,0.061 ± 0.012 µM,"Ki ([3]; read-out: In vitro binding assays Ki mTOR, TR-FRET displacement, mean ± SD): 0.01 ± 0.0016 µM"
"C[C@@H]1COCCN1c1nc(-c2cnc(N)cn2)nc2c1C[C@@H]1COCCN21 [Compound 12b, reference compound]",< 60 ×10⁻⁶ cm/s,212,1.69 ± 0.277 µM,0.06 ± 0.013 µM,

# Source: article PMC8128076 (RSC Medicinal Chemistry, 2021)
